Our source for the IC50, Dmax and DC50 values is US20260226086A1, “COMPOUNDS AND COMPOSITIONS AS STAT3 DEGRADERS AND USES THEREOF” (REGENTS OF THE UNIVERSITY OF MICHIGAN, priority 2023, published 2026).

The term IC50 denotes the midpoint of a concentration-inhibition curve. A higher IC50 goes with lower potency. The term Dmax denotes the greatest extent of degradation seen. By DC50 is commonly meant the midpoint of the concentration-degradation curve.

Format in all cases: cell-based
In one test the test system is SUP-M2 cells. As to the kind of experiment: CellTiter-Glo 2.0 cell viability assay, SUP-M2. The following applies: SUP-M2, 96 h, 4 days. Summed up:
(§1)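 1000 cells per well exposed to serially diluted compounds for 4 days at 37 °C, 5% CO2. Viability measured by CellTiter-Glo 2.0 luminescence versus untreated cells; IC50 from four-parameter nonlinear fit of triplicate means.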
(In general: Cellular ATP, detected with luciferase, serves as a proxy for viable cell number.)

For another test, the system named is SU-DHL-1 cells. Briefly: CellTiter-Glo 2.0 cell viability assay, SU-DHL-1. The following applies: Homo sapiens, 96 h, 4 days. A digest of the protocol:
as §1

The next test has as its target T1, STAT3 (Homo sapiens, UniProt P40763).
T1 construct: This cell line is a clone created by using CRISPR-Cas9 to fuse HiBiT to the 3′ end of STAT3 in HeLa cells; host or cells: STAT3-HiBiT KI HeLa cell line (CRISPR-Cas9 knock-in clone)
As to the kind of experiment: HiBiT assay, STAT3 degradation in STAT3-HiBiT KI HeLa cells. The settings on record: 24 h; for DC50: read-out: STAT3 Degradation (HeLa 24 h HiBit) DC50. Summed up:
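HeLa cells with CRISPR knock-in of HiBiT at the STAT3 C-terminus, 20000 cells/well, treated with serial compound dilutions for 24 h at 37 °C, 5% CO2. Remaining STAT3 read by Nano-Glo HiBiT lytic luminescence versus untreated cells; IC50 from four-parameter nonlinear fit of triplicate means.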
(In general: The HiBiT peptide binds its large partner to form an active luciferase.)

T1 sequence (P40763 whole entry): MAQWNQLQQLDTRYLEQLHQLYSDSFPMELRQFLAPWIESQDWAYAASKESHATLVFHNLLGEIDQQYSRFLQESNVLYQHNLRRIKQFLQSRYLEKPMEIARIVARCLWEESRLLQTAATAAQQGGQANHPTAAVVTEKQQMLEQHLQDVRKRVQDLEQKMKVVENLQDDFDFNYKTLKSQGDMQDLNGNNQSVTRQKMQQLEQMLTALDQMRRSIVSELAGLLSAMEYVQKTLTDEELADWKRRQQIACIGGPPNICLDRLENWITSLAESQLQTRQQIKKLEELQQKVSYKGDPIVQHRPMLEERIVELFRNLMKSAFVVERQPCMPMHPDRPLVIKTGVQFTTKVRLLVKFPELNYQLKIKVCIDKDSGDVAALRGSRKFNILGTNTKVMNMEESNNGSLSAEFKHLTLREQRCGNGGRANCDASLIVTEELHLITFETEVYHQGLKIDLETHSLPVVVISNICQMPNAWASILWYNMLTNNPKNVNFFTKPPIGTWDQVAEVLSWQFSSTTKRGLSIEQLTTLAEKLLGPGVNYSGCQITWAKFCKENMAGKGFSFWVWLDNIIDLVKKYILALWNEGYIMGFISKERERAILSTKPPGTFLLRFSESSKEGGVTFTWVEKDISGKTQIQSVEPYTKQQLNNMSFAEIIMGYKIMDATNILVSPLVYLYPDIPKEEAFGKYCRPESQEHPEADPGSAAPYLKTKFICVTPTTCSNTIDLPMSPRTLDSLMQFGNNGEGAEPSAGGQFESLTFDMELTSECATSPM

Consider `Cc1ncsc1-c1ccc([C@H](C)NC(=O)[C@@H]2C[C@@H](O)CN2C(=O)[C@@H](n2cc(CCCc3cccc(OC[C@H](CCC(N)=O)NC(=O)[C@@H]4CC[C@@H]5CCN(C(=O)CCN6CCN(C)CC6)C[C@H](NC(=O)c6cc7cc(C(=O)P(=O)(O)O)ccc7[nH]6)C(=O)N54)c3Cl)nn2)C(C)(C)C)cc1` [Compound 33, (2-(((5S,8S,10aR)-8-(((S)-5-amino-1-(2-chloro-3-(3-(1-((S)-1-((2S,4R)-4-hydroxy-2-(((S)-1-(4-(4-methylthiazol-5-yl)phenyl)ethyl)carbamoyl)pyrrolidin-1-yl)-3,3-dimethyl-1-oxobutan-2-yl)-1H-1,2,3-triazol-4-yl)propyl)phenoxy)-5-oxopentan-2-yl)carbamoyl)-3-(3-(4-methylpiperazin-1-yl)propanoyl)-6-oxodecahydropyrrolo[1,2-a][1,5]diazocin-5-yl)carbamoyl)-1H-indole-5-carbonyl)phosphonic acid], for which the IC50 in the test with SUP-M2 cells lay in the range of 100 to 1000 nM. In addition, the IC50 with SU-DHL-1 cells is 10 to 100 nM. Moreover, at STAT3, the Dmax at 1 µM was more than 80% and the half-maximal degradation concentration (DC50) lay in the range of 10 to 100 nM.

For the compound `CC(=O)N1CC[C@H]2CC[C@@H](C(=O)N[C@@H](CCC(N)=O)COc3cccc(CCCCNC(=O)C[C@H](NC(=O)[C@@H]4C[C@@H](O)CN4C(=O)[C@H](C4CCCCC4)n4cc(C5CC5)nn4)c4ccc(-c5scnc5C)cc4)c3Cl)N2C(=O)[C@@H](NC(=O)c2cc3cc(C(=O)P(=O)(O)O)ccc3[nH]2)C1` [Compound 36, (2-(((5S,8S,10aR)-3-acetyl-8-(((S)-5-amino-1-(2-chloro-3-(4-((S)-3-((2S,4R)-1-((S)-2-cyclohexyl-2-(4-cyclopropyl-1H-1,2,3-triazol-1-yl)acetyl)-4-hydroxypyrrolidine-2-carboxamido)-3-(4-(4-methylthiazol-5-yl)phenyl)propanamido)butyl)phenoxy)-5-oxopentan-2-yl)carbamoyl)-6-oxodecahydropyrrolo[1,2-a][1,5]diazocin-5-yl)carbamoyl)-1H-indole-5-carbonyl)phosphonic acid], the IC50 in the test with SUP-M2 cells and in the test on SU-DHL-1 cells was less than 10 nM each time. This compound also registered a maximal degradation (Dmax) at 1 µM on STAT3 of more than 80%. Further, on STAT3, the DC50 was less than 10 nM.

With `CC(=O)N1CC[C@H]2CC[C@@H](C(=O)N[C@@H](CCC(N)=O)COc3cccc(CCCC(=O)N4CCC([C@@H](C(=O)N5C[C@H](O)C[C@H]5C(=O)N[C@@H](C)c5ccc(-c6scnc6C)cc5)n5cc(C6CC6)nn5)CC4)c3Cl)N2C(=O)[C@@H](NC(=O)c2cc3cc(C(=O)P(=O)(O)O)ccc3[nH]2)C1` [Compound 37, (2-(((5S,8S,10aR)-3-acetyl-8-(((S)-5-amino-1-(2-chloro-3-(4-(4-((S)-1-(4-cyclopropyl-1H-1,2,3-triazol-1-yl)-2-((2S,4R)-4-hydroxy-2-(((S)-1-(4-(4-methylthiazol-5-yl)phenyl)ethyl)carbamoyl)pyrrolidin-1-yl)-2-oxoethyl)piperidin-1-yl)-4-oxobutyl)phenoxy)-5-oxopentan-2-yl)carbamoyl)-6-oxodecahydropyrrolo[1,2-a][1,5]diazocin-5-yl)carbamoyl)-1H-indole-5-carbonyl)phosphonic acid], the IC50 in the test on SUP-M2 cells lay within 10 to 100 nM. The same compound returned a 50% inhibitory concentration (IC50) with SU-DHL-1 cells of more than 1000 nM. Also, on STAT3, the Dmax at 1 µM lay in the range of 60 to 80% and the half-maximal degradation concentration (DC50) was 100 to 1000 nM.

In the test with SUP-M2 cells, `CC(=O)N1CC[C@H]2CC[C@@H](C(=O)N[C@@H](CCC(N)=O)COc3cccc(CCCCN4CCC([C@@H](C(=O)N5C[C@H](O)C[C@H]5C(=O)N[C@@H](C)c5ccc(-c6scnc6C)cc5)n5cc(C6CC6)nn5)CC4)c3Cl)N2C(=O)[C@@H](NC(=O)c2cc3cc(C(=O)P(=O)(O)O)ccc3[nH]2)C1` [Compound 38, (2-(((5S,8S,10aR)-3-acetyl-8-(((S)-5-amino-1-(2-chloro-3-(4-(4-((S)-1-(4-cyclopropyl-1H-1,2,3-triazol-1-yl)-2-((2S,4R)-4-hydroxy-2-(((S)-1-(4-(4-methylthiazol-5-yl)phenyl)ethyl)carbamoyl)pyrrolidin-1-yl)-2-oxoethyl)piperidin-1-yl)butyl)phenoxy)-5-oxopentan-2-yl)carbamoyl)-6-oxodecahydropyrrolo[1,2-a][1,5]diazocin-5-yl)carbamoyl)-1H-indole-5-carbonyl)phosphonic acid] returned an IC50 of 10 to 100 nM. In the test on SU-DHL-1 cells, this compound came in with an IC50 of more than 1000 nM. In addition, at STAT3, the Dmax at 1 µM was 60 to 80% and the DC50 was 100 to 1000 nM.

The compound `CC(=O)N1CC[C@H]2CC[C@@H](C(=O)N[C@@H](CCC(N)=O)COc3cccc(CCCc4cn([C@H](C(=O)N5C[C@H](O)C[C@H]5C(=O)N[C@@H](CO)c5ccc(-c6scnc6C)cc5)C(C)(C)C)nn4)c3Cl)N2C(=O)[C@@H](NC(=O)c2cc3cc(C(=O)P(=O)(O)O)ccc3[nH]2)C1` [Compound 39, (2-(((5S,8S,10aR)-3-acetyl-8-(((S)-5-amino-1-(2-chloro-3-(3-(1-((S)-1-((2S,4R)-4-hydroxy-2-(((R)-2-hydroxy-1-(4-(4-methylthiazol-5-yl)phenyl)ethyl)carbamoyl)pyrrolidin-1-yl)-3,3-dimethyl-1-oxobutan-2-yl)-1H-1,2,3-triazol-4-yl)propyl)phenoxy)-5-oxopentan-2-yl)carbamoyl)-6-oxodecahydropyrrolo[1,2-a][1,5]diazocin-5-yl)carbamoyl)-1H-indole-5-carbonyl)phosphonic acid] showed an IC50 in the test on SUP-M2 cells of less than 10 nM. In the test on SU-DHL-1 cells, this compound yielded an IC50 of less than 10 nM. Further, at STAT3, the Dmax at 1 µM was more than 80% and the DC50 is less than 10 nM.

Turning to `Cc1ncsc1-c1ccc([C@H](C)NC(=O)[C@@H]2C[C@@H](O)CN2C(=O)[C@@H](NC(=O)CC(=O)N2CC[C@H]3CC[C@@H](C(=O)N[C@@H](CCC(N)=O)C(=O)NC(c4ccccc4)c4ccccc4)N3C(=O)[C@@H](NC(=O)c3cc4cc(C(=O)P(=O)(O)O)ccc4[nH]3)C2)C(C)(C)C)cc1` [Compound 46, (2-(((5S,8S,10aR)-8-(((S)-5-amino-1-(benzhydrylamino)-1,5-dioxopentan-2-yl)carbamoyl)-3-(3-(((S)-1-((2S,4R)-4-hydroxy-2-(((S)-1-(4-(4-methylthiazol-5-yl)phenyl)ethyl)carbamoyl)pyrrolidin-1-yl)-3,3-dimethyl-1-oxobutan-2-yl)amino)-3-oxopropanoyl)-6-oxodecahydropyrrolo[1,2-a][1,5]diazocin-5-yl)carbamoyl)-1H-indole-5-carbonyl)phosphonic acid], the half-inhibitory concentration (IC50) in the test with SUP-M2 cells and with SU-DHL-1 cells was more than 1000 nM each time. For the same compound, on STAT3, the half-maximal degradation concentration (DC50) was more than 1000 nM.

Turning to `Cc1ncsc1-c1ccc([C@H](C)NC(=O)[C@@H]2C[C@@H](O)CN2C(=O)[C@@H](NC(=O)CCC(=O)N2CC[C@H]3CC[C@@H](C(=O)N[C@@H](CCC(N)=O)C(=O)NC(c4ccccc4)c4ccccc4)N3C(=O)[C@@H](NC(=O)c3cc4cc(C(=O)P(=O)(O)O)ccc4[nH]3)C2)C(C)(C)C)cc1` [Compound 47, (2-(((5S,8S,10aR)-8-(((S)-5-amino-1-(benzhydrylamino)-1,5-dioxopentan-2-yl)carbamoyl)-3-(4-(((S)-1-((2S,4R)-4-hydroxy-2-(((S)-1-(4-(4-methylthiazol-5-yl)phenyl)ethyl)carbamoyl)pyrrolidin-1-yl)-3,3-dimethyl-1-oxobutan-2-yl)amino)-4-oxobutanoyl)-6-oxodecahydropyrrolo[1,2-a][1,5]diazocin-5-yl)carbamoyl)-1H-indole-5-carbonyl)phosphonic acid], the IC50 in the test with SUP-M2 cells and in the test on SU-DHL-1 cells was 100 to 1000 nM throughout. In addition, on STAT3, the DC50 was 100 to 1000 nM.
